Patent publication US11208387B2, “Macrocyclic broad spectrum antibiotics” (Genentech, Inc., priority 2019, dated 2021)
≈ marks a conversion by molar mass, not a printed value. Where two headings read alike, the source gives them in different places.

Tests used:
Experiment in all cases: Serum MIC, broth micro-dilution
Assay type in all cases: cell-based
[1] = test system: Pseudomonas aeruginosa PA01; settings: Pseudomonas aeruginosa, read-out: P. aeruginosa 01 Serum MIC
Procedure: (§1) In vitro antimicrobial activity of each compound was determined by measuring minimal inhibitor concentrations (MICs) using the broth micro-dilution technique as approved by the Clinical and Laboratory Standards Institute (CLSI) (Methods for Dilution Antimicrobial Susceptibility Tests for Bacteria that Grow Aerobically; Approved Standard—Eighth Edition. CLSI document M07-A8. Wayne, Pa.: Clinical and Laboratory Standards; 2009). Antibacterial activity was measure against Escherichia coli strain ATCC 25922 (E. coli), Klebsiella pneumoniae ATCC 700603 (K. pneumoniae), Acinetobacter baumannii ATCC 17978 (A. baumannii), and Pseudomonas aeruginosa PA01 (P. aeruginosa), each of which is representative of a clinically relevant Gram-negative species. Cells were inoculated onto plates of Mueller Hinton Agar and grown at 37° C. for 16-18 hours. Inocula suspensions were prepared by scraping cells into 1 mL of testing media (Mueller Hinton II cation adjusted Broth) and diluting to a final OD 600 nm of 0.01.
(§2) Test compounds were prepared in DMSO at a concentration of […]. The compounds were tested under several different dilution formats. In protocol 1, the compound stocks were diluted into testing media at a concentration of 64 μg/ml and serial 2-fold dilutions were made in the same media, in 96-well U bottom microtiter dishes, for a total of 10 compound concentrations. In protocol 2, the compound stocks were diluted into testing media at a concentration of 4 μg/mL and serial 2-fold dilutions were made in the same media, in 96-well U bottom microtiter dishes, for a total of 10 compound concentrations. In protocol 3, compound stocks were diluted into testing media at a concentration of 0.5 μg/mL, with serial 2-fold dilutions conducted as described above. In protocol 4, compound stocks were diluted into testing media at a concentration of 0.13 μg/mL, with serial 2-fold dilutions conducted as described above. Inocula suspensions were added to the 2-fold serial dilutions of test compounds to a final density of OD 600 nm of 0.0005 and incubated at 35° C. for 22 hours. […] To assess antimicrobial activity in the presence of plasma proteins, MICs were also determined in growth media supplemented with 50% serum. Bacterial inocula and test compound dilution plates were prepared using the same protocol as described above for the standard MICs assay, with the exception that a mixture of 50% v/v Mueller Hinton II cation adjusted Broth and 50% v/v mouse sterile filtered serum (Equitech-Bio) was used in place of 100% Mueller Hinton II cation adjusted Broth. The results are listed in Table 3 (MIC, IC50 values micromolar).

[2] = test system: Escherichia coli strain ATCC 25922; settings: Escherichia coli, read-out: E. coli 25922 Serum MIC
Procedure: as §1, §2

[3] = test system: Acinetobacter baumannii ATCC 17978; settings: Acinetobacter baumannii
Procedure: as §1, §2

[4] = test system: Klebsiella pneumoniae ATCC 700603; settings: Klebsiella pneumoniae, read-out: K pneumoniae 700603 Serum MIC
Procedure: as §1, §2

[5] = PA01, 50% v/v mouse serum in Mueller Hinton II cation adjusted Broth, 35° C., 22 hours, Table 4
[6] = ATCC25922, 50% v/v mouse serum in Mueller Hinton II cation adjusted Broth, 35° C., 22 hours, Table 4
[7] = ATCC17978, 50% v/v mouse serum in Mueller Hinton II cation adjusted Broth, 35° C., 22 hours, Table 4, read-out: A. baumanii 17978 Serum MIC
[8] = ATCC17978, 50% v/v mouse serum in Mueller Hinton II cation adjusted Broth, 35° C., 22 hours, Table 5, read-out: Acinetobacter baumanii 17978 Serum MIC
[9] = ATCC700603, 50% v/v mouse serum in Mueller Hinton II cation adjusted Broth, 35° C., 22 hours, Table 4
[10] = ATCC17978, 22 h, read-out: A. baumanii 17978 Serum MIC
[11] = ATCC17978, 22 h, read-out: Acinetobacter baumanii 17978 Serum MIC

Row | SMILES | MIC [1, 5] [µM] | MIC [2, 6] [µM] | MIC [3, 7] [µM] | MIC [3, 8] [µM] | MIC [4, 9] [µM] | MIC ([1]; PA01, 22 h) [µM] | MIC ([2]; ATCC25922, 22 h) [µM] | MIC [3, 10] [µM] | MIC [3, 11] [µM] | MIC ([4]; ATCC700603, 22 h) [µM]
1 | C[C@@H]1NC(=O)[C@@H](N(C)C(=O)[C@H](CNS(N)(=O)=O)NC(=O)c2cnn(-c3ccc(OCCC(C)(C)C)cc3)c(=O)c2)c2cc(OC[C@H](O)CN)c(O)c(c2)-c2cc(ccc2OC[C@H](O)CN)C[C@@H](C(=O)O)NC1=O [Example 4, (8S,11S,14S)-18-hydroxy-11-methyl-14-[methyl-[(2S)-2-[[1-[4-(3,3-dimethyl-butoxy)phenyl]-6-oxo-pyridazine-4-carbonyl]amino]-3-(sulfamoylamino)-propanoyl]amino]-10,13-dioxo-3,17-bis[(2R)-3-amino-2-hydroxy-propoxy]-9,12-diazatricyclo-[13.3.1.12,6]icosa-1(18),2(20),3,5,15(19), 16-hexaene-8-carboxylic acid] | 12 (≈ 12.5 µg/mL) | 1 (≈ 1.04 µg/mL) | 24 (≈ 24.9 µg/mL) | 24 (≈ 24.9 µg/mL) | 0.75 (≈ 0.779 µg/mL) | – | – | – | – | –
2 | Cc1nc(-c2ccc(C3(C)CC3)cc2)ncc1C(=O)N[C@@H](CNS(N)(=O)=O)C(=O)N(C)[C@@H]1C(=O)N[C@@H](C)C(=O)N[C@H](C(=O)O)Cc2ccc(OC[C@H](O)CN)c(c2)-c2cc1cc(OC[C@H](O)CN)c2O [Example 5, (8S,11S,14S)-18-hydroxy-11-methyl-14-[methyl-[(2S)-2-[[4-methyl-2-[4-(1-methylcyclopropyl)-phenyl]pyrimidine-5-carbonyl]amino]-3-(sulfamoylamino)-propanoyl]amino]-10,13-dioxo-3,17-bis[(2R)-3-amino-2-hydroxy-propoxy]-9,12-diazatricyclo-[13.3.1.12,6]icosa-1(18),2(20),3,5,15(19), 16-hexaene-8-carboxylic acid] | 20 (≈ 19.8 µg/mL) | 0.63 (≈ 0.624 µg/mL) | 12 (≈ 11.9 µg/mL) | 12 (≈ 11.9 µg/mL) | 0.88 (≈ 0.872 µg/mL) | – | – | – | – | –
3 | Cc1nc(-c2ccc(C3(C)CC3)cc2)nc(N)c1C(=O)N[C@@H](CNS(N)(=O)=O)C(=O)N(C)[C@@H]1C(=O)N[C@@H](C)C(=O)N[C@H](C(=O)O)Cc2ccc(OC[C@H](O)CN)c(c2)-c2cc1cc(OC[C@H](O)CN)c2O [Example 6, (8S,11S,14S)-18-hydroxy-11-methyl-14-[methyl-[(2S)-2-[[4-amino-6-methyl-2-[4-(1-methylcyclo-propyl)phenyl]-pyrimidine-5-carbonyl]amino]-3-(sulfamoylamino)-propanoyl]amino]-10,13-dioxo-3,17-bis[(2R)-3-amino-2-hydroxy-propoxy]-9,12-diazatricyclo-[13.3.1.12,6]icosa-1(18),2(20),3,5,15(19), 16-hexaene-8-carboxylic acid] | 16 (≈ 16.1 µg/mL) | 0.75 (≈ 0.755 µg/mL) | 16 (≈ 16.1 µg/mL) | 16 (≈ 16.1 µg/mL) | 0.75 (≈ 0.755 µg/mL) | – | – | – | – | –
4 | C[C@@H]1NC(=O)[C@@H](N(C)C(=O)[C@H](CNS(N)(=O)=O)NC(=O)c2cnn(-c3ccc(OC4CCCCC4)cc3)c(=O)c2)c2cc(OC[C@H](O)CN)c(O)c(c2)-c2cc(ccc2OC[C@H](O)CN)C[C@@H](C(=O)O)NC1=O [Example 9, (8S,11S,14S)-18-hydroxy-11-methyl-14-[methyl-[(2S)-2-[[1-[4-(cyclohexoxy)-phenyl]-6-oxo-pyridazine-4-carbonyl]amino]-3-(sulfamoylamino)-propanoyl]amino]-10,13-dioxo-3,17-bis[(2R)-3-amino-2-hydroxy-propoxy]-9,12-diazatricyclo-[13.3.1.12,6]icosa-1(18),2(20),3,5,15(19), 16-hexaene-8-carboxylic acid] | 32 (≈ 33.2 µg/mL) | 6 (≈ 6.22 µg/mL) | 32 (≈ 33.2 µg/mL) | 32 (≈ 33.2 µg/mL) | 1.5 (≈ 1.56 µg/mL) | – | – | – | – | –
5 | Cc1nc(-c2ccc(C(F)(F)C(C)C)cc2)ncc1C(=O)N[C@@H](CNS(N)(=O)=O)C(=O)N(C)[C@@H]1C(=O)N[C@@H](C)C(=O)N[C@H](C(=O)O)Cc2ccc(OC[C@H](O)CN)c(c2)-c2cc1cc(OC[C@H](O)CN)c2O [Example 10, (8S,11S,14S)-18-hydroxy-11-methyl-14-[methyl-[(2S)-2-[[2-[4-(1,1-difluoro-2-methyl-propyl)-phenyl]-4-methyl-pyrimidine-5-carbonyl]amino]-3-(sulfamoylamino)-propanoyl]amino]-10,13-dioxo-3,17-bis[(2R)-3-amino-2-hydroxy-propoxy]-9,12-diazatricyclo-[13.3.1.12,6]icosa-1(18),2(20),3,5,13(19), 16-hexaene-8-carboxylic acid] | 32 (≈ 32.9 µg/mL) | 0.5 (≈ 0.515 µg/mL) | 32 (≈ 32.9 µg/mL) | 32 (≈ 32.9 µg/mL) | 1 (≈ 1.03 µg/mL) | – | – | – | – | –
6 | C[C@@H]1NC(=O)[C@@H](N(C)C(=O)[C@H](CNS(N)(=O)=O)NC(=O)c2ncc(-c3ccc(C(C)(C)C)cc3)nc2N)c2cc(OC[C@H](O)CN)c(O)c(c2)-c2cc(ccc2OC[C@H](O)CN)C[C@@H](C(=O)O)NC1=O [Example 11, (8S,11S,14S)-18-hydroxy-11-methyl-14-[methyl-[(2S)-2-[[3-amino-5-(4-tert-butylphenyl)pyrazine-2-carbonyl]amino]-3-(sulfamoylamino)-propanoyl]amino]-10,13-dioxo-3,17-bis[(2R)-3-amino-2-hydroxy-propoxy]-9,12-diazatricyclo-[13.3.1.12,6]icosa-1(18),2(20),3,5,15(19), 16-hexaene-8-carboxylic acid] | – | – | – | – | – | 64 (≈ 63.6 µg/mL) | 4 (≈ 3.98 µg/mL) | 16 (≈ 15.9 µg/mL) | 16 (≈ 15.9 µg/mL) | 4 (≈ 3.98 µg/mL)
7 | Cc1nc(N2CCC(C(C)(C)C)CC2)nc(N)c1C(=O)N[C@@H](CNS(N)(=O)=O)C(=O)N(C)[C@@H]1C(=O)N[C@@H](C)C(=O)N[C@H](C(=O)O)Cc2ccc(OC[C@H](O)CN)c(c2)-c2cc1cc(OC[C@H](O)CN)c2O [Example 12, (8S,11S,14S)-18-hydroxy-11-methyl-14-[methyl-[(2S)-2-[[4-amino-2-(4-tert-butyl-1-piperidyl)-6-methyl-pyrimidine-5-carbonyl]amino]-3-(sulfamoylamino)-propanoyl]amino]-10,13-dioxo-3,17-bis[(2R)-3-amino-2-hydroxy-propoxy]-9,12-diazatricyclo-[13.3.1.12,6]icosa-1(18),2(20),3,5,15(19), 16-hexaene-8-carboxylic acid] | 16 (≈ 16.2 µg/mL) | 2 (≈ 2.03 µg/mL) | 16 (≈ 16.2 µg/mL) | 16 (≈ 16.2 µg/mL) | 3 (≈ 3.05 µg/mL) | – | – | – | – | –
8 | Cc1nc(-c2ccc(OC(C)C)cc2)nc(C)c1C(=O)N[C@@H](CNS(N)(=O)=O)C(=O)N(C)[C@@H]1C(=O)N[C@@H](C)C(=O)N[C@H](C(=O)O)Cc2ccc(OC[C@H](O)CN)c(c2)-c2cc1cc(OC[C@H](O)CN)c2O [Example 13, (8S,11S,14S)-18-hydroxy-11-methyl-14-[methyl-[(2S)-2-[[2-(4-isopropoxy-phenyl)-4,6-dimethyl-pyrimidine-5-carbonyl]amino]-3-(sulfamoylamino)-propanoyl]amino]-10,13-dioxo-3,17-bis[(2R)-3-amino-2-hydroxy-propoxy]-9,12-diazatricyclo-[13.3.1.12,6]icosa-1(18),2(20),3,5,15(19), 16-hexaene-8-carboxylic acid] | – | – | – | – | – | 24 (≈ 24.2 µg/mL) | 1.5 (≈ 1.51 µg/mL) | 32 (≈ 32.3 µg/mL) | 32 (≈ 32.3 µg/mL) | 1.5 (≈ 1.51 µg/mL)
